Source: PubChem BioAssay AID190 (DTP/NCI, 2004)
Where “and” joins values, the source holds several entries; their conditions need not be identical. Identical values can stand only once. Toxic doses and inconclusive results are not listed.

System: AKR/Lw mice, AKR lymphoma ip, median survival T/C
Assay: NCI In Vivo Anticancer Drug Screen. Data for tumor model Lymphoma AKR (Transplanted) (intraperitoneal) in AKR/Lw mice
Conditions: endpoint: median survival time, higher = longer survival
Procedure: The antitumor activity of compounds was measured in mice bearing transplantable tumors. Survival or tumor size were measured and the results are expressed as the measurement made in the treated group (T) divided by the measurement made in the vehicle treated control group (C). The tumor model used in this assay is Lymphoma AKR (Transplanted) (intraperitoneal) in AKR/Lw mice

[1] = dose: 2.0 mg/kg/injection, schedule: Q04DX003 (ip), vehicle: saline with Tween-80
[2] = dose: 100.0 mg/kg/injection, schedule: Q01DX001 (ip), vehicle: saline
[3] = dose: 100.0 mg/kg/injection, schedule: Q04DX003 (ip), vehicle: saline
[4] = dose: 200.0 mg/kg/injection, schedule: Q01DX001 (ip), vehicle: saline
[5] = dose: 400.0 mg/kg/injection, schedule: Q01DX001 (ip), vehicle: saline
[6] = dose: 100.0 mg/kg/injection, schedule: Q01DX001 (ip), vehicle: Klucel (hydroxypropylcellulose) (HPC)
[7] = dose: 200.0 mg/kg/injection, schedule: Q01DX001 (ip), vehicle: Klucel (hydroxypropylcellulose) (HPC)
[8] = dose: 400.0 mg/kg/injection, schedule: Q01DX001 (ip), vehicle: Klucel (hydroxypropylcellulose) (HPC)

Q: What does the source list for `CC1CCC(NC(=O)N(CCCl)N=O)CC1` (stereo not given)?
A: T/C (dose: 1.25 mg/kg/injection, schedule: Q14DX003 (ip), vehicle: saline with Tween-80): 112 % of control; T/C [1]: 106 % of control; T/C (dose: 2.0 mg/kg/injection, schedule: Q07DX004 (ip), vehicle: saline with Tween-80): 113 % of control; T/C (dose: 2.5 mg/kg/injection, schedule: Q01DX006 (ip), vehicle: saline with Tween-80): 93 % of control; T/C (dose: 2.5 mg/kg/injection, schedule: Q09DX002 (ip), vehicle: saline with Tween-80): 102 % of control; T/C (dose: 2.5 mg/kg/injection, schedule: Q10DX002 (ip), vehicle: saline with Tween-80): 108 % of control; T/C (dose: 2.5 mg/kg/injection, schedule: Q14DX003 (ip), vehicle: saline with Tween-80): 108 % of control and 112 % of control (2×); T/C (dose: 3.0 mg/kg/injection, schedule: Q01DX001 (ip), vehicle: saline with Tween-80): 111 % of control; T/C (dose: 4.4 mg/kg/injection, schedule: Q04DX003 (ip), vehicle: saline with Tween-80): 92 % of control; T/C (dose: 4.4 mg/kg/injection, schedule: Q07DX004 (ip), vehicle: saline with Tween-80): 124 % of control; T/C (dose: 4.8 mg/kg/injection, schedule: Q01DX001 (ip), vehicle: saline with Tween-80): 116 % of control; T/C (dose: 5.0 mg/kg/injection, schedule: Q01DX006 (ip), vehicle: saline with Tween-80): 90 % of control; T/C (dose: 5.0 mg/kg/injection, schedule: Q09DX002 (ip), vehicle: saline with Tween-80): 101 % of control; T/C (dose: 5.0 mg/kg/injection, schedule: Q10DX002 (ip), vehicle: saline with Tween-80): 94 % of control; T/C (dose: 6.25 mg/kg/injection, schedule: Q07DX003 (ip), vehicle: saline): 106 % of control and 118 % of control; T/C (dose: 6.7 mg/kg/injection, schedule: Q07DX004 (ip), vehicle: saline with Tween-80): 118 % of control; T/C (dose: 7.5 mg/kg/injection, schedule: Q01DX006 (ip), vehicle: saline with Tween-80): 120 % of control; T/C (dose: 7.5 mg/kg/injection, schedule: Q09DX002 (ip), vehicle: saline with Tween-80): 101 % of control; T/C (dose: 8.0 mg/kg/injection, schedule: Q09DX002 (ip), vehicle: saline with Tween-80): 86 % of control; T/C (dose: 10.0 mg/kg/injection, schedule: Q01DX006 (ip), vehicle: saline with Tween-80): 112 % of control; T/C (dose: 10.0 mg/kg/injection, schedule: Q04DX003 (ip), vehicle: saline with Tween-80): 66 % of control; T/C (dose: 10.0 mg/kg/injection, schedule: Q04DX004 (ip), vehicle: Klucel (hydroxypropylcellulose) (HPC)): 86 % of control; T/C (dose: 10.0 mg/kg/injection, schedule: Q07DX004 (ip), vehicle: saline with Tween-80): 107 % of control; T/C (dose: 10.0 mg/kg/injection, schedule: Q09DX002 (ip), vehicle: saline with Tween-80): 107 % of control (2×) and 117 % of control; T/C (dose: 10.0 mg/kg/injection, schedule: Q10DX002 (ip), vehicle: saline with Tween-80): 116 % of control; T/C (dose: 11.0 mg/kg/injection, schedule: Q01DX001 (ip), vehicle: saline with Tween-80): 106 % of control; T/C (dose: 12.0 mg/kg/injection, schedule: Q01DX001 (ip), vehicle: saline): 103 % of control; T/C (dose: 13.5 mg/kg/injection, schedule: Q10DX002 (ip), vehicle: saline with Tween-80): 104 % of control; T/C (dose: 15.0 mg/kg/injection, schedule: Q04DX004 (ip), vehicle: Klucel (hydroxypropylcellulose) (HPC)): 94 % of control; T/C (dose: 15.0 mg/kg/injection, schedule: Q14DX003 (ip), vehicle: saline with Tween-80): 109 % of control; T/C (dose: 16.0 mg/kg/injection, schedule: Q01DX001 (ip), vehicle: saline with Tween-80): 111 % of control; T/C (dose: 16.0 mg/kg/injection, schedule: Q09DX002 (ip), vehicle: saline with Tween-80): 86 % of control; T/C (dose: 20.0 mg/kg/injection, schedule: Q04DX004 (ip), vehicle: Klucel (hydroxypropylcellulose) (HPC)): 86 % of control; T/C (dose: 25.0 mg/kg/injection, schedule: Q07DX003 (ip), vehicle: saline): 118 % of control and 121 % of control; T/C (dose: 27.0 mg/kg/injection, schedule: Q10DX002 (ip), vehicle: saline with Tween-80): 116 % of control; T/C (dose: 32.0 mg/kg/injection, schedule: Q09DX002 (ip), vehicle: saline with Tween-80): 80 % of control; T/C (dose: 36.0 mg/kg/injection, schedule: Q01DX001 (ip), vehicle: saline with Tween-80): 116 % of control; T/C (dose: 36.0 mg/kg/injection, schedule: Q01DX001 (ip), vehicle: saline): 262 % of control; T/C (dose: 45.0 mg/kg/injection, schedule: Q10DX002 (ip), vehicle: saline with Tween-80): 103 % of control; T/C (dose: 48.0 mg/kg/injection, schedule: Q01DX001 (ip), vehicle: saline): 100 % of control and 117 % of control; T/C (dose: 54.0 mg/kg/injection, schedule: Q10DX002 (ip), vehicle: saline with Tween-80): 55 % of control

Q: What does the source list for `CC1(C)CC[N+]1(C)Cc1ccccc1` (stereo not given)?
A: T/C (dose: 6.25 mg/kg/injection, schedule: Q01DX001 (ip), vehicle: saline): 97 % of control; T/C (dose: 12.5 mg/kg/injection, schedule: Q01DX001 (ip), vehicle: saline): 100 % of control; T/C (dose: 25.0 mg/kg/injection, schedule: Q01DX001 (ip), vehicle: saline): 100 % of control

Q: With `c1ccc2c(c1)CNCc1ccccc1-2` as the compound, how does the T/C [2] read?
A: The T/C was 97 % of control.

Q: What does the source list for `CC12CC3CC(C1)CC(C(=O)O)(C3)C2`?
A: T/C (dose: 25.0 mg/kg/injection, schedule: Q04DX003 (ip), vehicle: saline): 97 % of control; T/C (dose: 50.0 mg/kg/injection, schedule: Q04DX003 (ip), vehicle: saline): 102 % of control; T/C [2]: 100 % of control; T/C [3]: 100 % of control; T/C [4]: 101 % of control; T/C [5]: 108 % of control

Q: What does the source list for `CC(C)(C)/[N+]([O-])=[N+](\[O-])C(C)(C)C` (tested in a mixture with another compound)?
A: T/C [6]: 95 % of control; T/C [7]: 97 % of control; T/C [8]: 100 % of control

Q: For `COc1ccc(CCN2C(=O)CSC2=S)cc1OC`, which T/C [6] is on record?
A: Its T/C is 100 % of control.

Q: And the T/C [8]?
A: Its T/C is 100 % of control.

Q: Which T/C (dose: 0.12 mg/kg/injection, schedule: Q03HX032 (ip), vehicle: saline with Tween-80) does the source give for `NC(=S)N/N=C/c1ccccn1` here?
A: The T/C was 122 % of control.

Q: What about the T/C (dose: 0.25 mg/kg/injection, schedule: Q03HX032 (ip), vehicle: saline with Tween-80) of the same compound?
A: The T/C was 113 % of control.

Q: And the T/C (dose: 0.5 mg/kg/injection, schedule: Q03HX032 (ip), vehicle: saline with Tween-80)?
A: The T/C was 122 % of control.

Q: And the T/C (dose: 1.0 mg/kg/injection, schedule: Q03HX032 (ip), vehicle: saline with Tween-80)?
A: Its T/C is 114 % of control.

Q: What about the T/C (dose: 1.25 mg/kg/injection, schedule: Q01DX009 (ip), vehicle: saline with Tween-80) of the same compound?
A: Its T/C is 96 % of control.

Q: And the T/C [1]?
A: The T/C was 103 % of control.

Q: And the T/C (dose: 3.5 mg/kg/injection, schedule: Q04DX003 (ip), vehicle: saline with Tween-80)?
A: Its T/C is 96 % of control.

Q: And the T/C (dose: 4.0 mg/kg/injection, schedule: Q04DX003 (ip), vehicle: saline with Tween-80)?
A: The T/C was 116 % of control.

Q: What about the T/C (dose: 5.0 mg/kg/injection, schedule: Q01DX009 (ip), vehicle: saline with Tween-80) of the same compound?
A: The T/C was 94 % of control.

Q: What about the T/C (dose: 5.3 mg/kg/injection, schedule: Q04DX003 (ip), vehicle: saline with Tween-80) of the same compound?
A: Its T/C is 106 % of control.

Q: And the T/C (dose: 8.0 mg/kg/injection, schedule: Q04DX003 (ip), vehicle: saline with Tween-80)?
A: The T/C was 109 % of control.

Q: What about the T/C (dose: 13.0 mg/kg/injection, schedule: Q04DX003 (ip), vehicle: saline with Tween-80) of the same compound?
A: The T/C was 112 % of control.

Q: Which T/C [2] does the source give for `O=C(NC(CSSCC(NC(=O)OCc1ccccc1)C(=O)O)C(=O)O)OCc1ccccc1` (stereo not given) here?
A: The T/C was 107 % of control.

Q: And the T/C [3]?
A: The T/C was 100 % of control.

Q: What about the T/C [4] of the same compound?
A: The T/C was 107 % of control.

Q: And the T/C [5]?
A: Its T/C is 102 % of control.

Q: What about the T/C (dose: 400.0 mg/kg/injection, schedule: Q04DX003 (ip), vehicle: saline) of the same compound?
A: The T/C was 89 % of control.

Q: Which results are given for `CC(=O)c1cccc(N)c1`?
A: T/C [6]: 93 % of control and 105 % of control; T/C [7]: 91 % of control; T/C [8]: 94 % of control and 122 % of control; T/C (dose: 600.0 mg/kg/injection, schedule: Q01DX001 (ip), vehicle: Klucel (hydroxypropylcellulose) (HPC)): 94 % of control

Q: How did the T/C (dose: 200.0 mg/kg/injection, schedule: Q01DX001 (ip), vehicle: saline with Tween-80) turn out when `COc1cccc(CNc2cccc(Cl)c2Cl)c1OC` was run?
A: Its T/C is 93 % of control and 100 % of control.

Q: And the T/C (dose: 400.0 mg/kg/injection, schedule: Q01DX001 (ip), vehicle: saline with Tween-80)?
A: Its T/C is 93 % of control and 113 % of control.

Q: How did the T/C [4] turn out when `COc1cc(N)c2ncccc2c1SC` was run?
A: The T/C was 102 % of control.

Q: What about the T/C [5] of the same compound?
A: The T/C was 106 % of control.

Q: Which results are given for `NCCCC(=O)O`?
A: T/C [2]: 93 % of control; T/C [4]: 95 % of control; T/C [5]: 95 % of control

Q: For `c1ccc(C[N+](Cc2ccccc2)=C2CCCCC2)cc1`, which T/C [2] is on record?
A: The T/C was 111 % of control.

Q: What about the T/C [4] of the same compound?
A: The T/C was 114 % of control.

Q: How did the T/C [2] turn out when `c1ccc2c(c1)OCCOCCOc1ccccc1OCCOCCO2` was run?
A: The T/C was 107 % of control.

Q: And the T/C [4]?
A: The T/C was 123 % of control.

Q: What about the T/C [5] of the same compound?
A: The T/C was 103 % of control.

Q: For `c1ccc(CC(Cc2ccccc2)=[N+]2CCCC2)cc1`, which T/C [2] is on record?
A: The T/C was 97 % of control.

Q: What about the T/C [4] of the same compound?
A: Its T/C is 88 % of control.

Q: What about the T/C [5] of the same compound?
A: The T/C was 88 % of control.

Q: Which results are given for `O=C(Nc1ccccc1)Oc1ccc(Cl)cc1`?
A: T/C [6]: 100 % of control; T/C [7]: 100 % of control; T/C [8]: 106 % of control
